What was measured:
[1] = Radiochemical stability of 177Lu-labeled structures in 0.9% sodium chloride (radio-HPLC); assay type: physicochemical; conditions: for radiochemical purity after 168 h: 168 h in 0.9% sodium chloride at 37°C
Experimental: Lutetium (^177Lu) chloride was used as a radioligand. […] The radioactivity of samples was measured with a gamma counter ISOMED 2010 (PTW, Germany). Labeling of the peptides was conducted on a Gaia/Luna complex (Elysia-Raytest, Germany). […] The system was controlled by the Clarity programs (Clarity Software, Great Britain). The labeled peptides were purified from free lutetium with the help of single-use cartridges C18 (ABX, Germany), the GAIA complex was used according to the gel-filtration principle.

[2] = Chemical stability in 0.9% sodium chloride (HPLC chromatographic purity); assay type: physicochemical; conditions: target peak area as % of total peak area, M±SD
Experimental: The analysis of the synthesis and purity control of the commercial PSMA-617 (Huayi Isotopes, China) was performed using chromatographic system Shimadzu LC-20AD XR (Shimadzu, Japan), equipped with spectrophotometric detector SPD-20A, according to the principle of the reverse-phase chromatography with the help of Luna C18 column (Dr. Maisch, Germany) and gradient elution of acetonitrile (Criochrome, Russia) from 95 to 0% and deionized water from 0 to 100% for 40 min. Mass-spectrometric analysis was conducted on the basis of MALDI-TOF mass-spectrometry using MALDI-TOF MS system, series FLEX (Bruker Daltonics, Germany). The peptide was purified by means of a high-performance liquid chromatography system NGC Quest 10 (Bio-Rad, USA) using Bio-Gel P-4 sorbent on the Econo-Column 1×30 cm (Bio-Rad, USA).
Lutetium (^177Lu) chloride was used as a radioligand. […] The radioactivity of samples was measured with a gamma counter ISOMED 2010 (PTW, Germany). Labeling of the peptides was conducted on a Gaia/Luna complex (Elysia-Raytest, Germany). […] The system was controlled by the Clarity programs (Clarity Software, Great Britain). The labeled peptides were purified from free lutetium with the help of single-use cartridges C18 (ABX, Germany), the GAIA complex was used according to the gel-filtration principle. Radiochemical stability was evaluated using the same parameters after 24, 48, 96 and 168 h in 0.9% sodium chloride at 37°C. Chemical stability was similarly fixed in 0.9% sodium chloride as described above. Chromatographic purity was calculated as a percentage of the target substance peak area in relation to the total area of the peaks on the chromatogram taken as 100%.

[3] = system: HCT-116 culture; experiment: Binding of 6-FAM-labeled peptides to cell culture, fluorescence microscopy; assay type: cell-based, human; conditions: 1 μmol/L, 3 h incubation, washed with cooled phosphate buffer, ImageJ, >300 cells
Experimental: (§1) A fluorescent dye 6-FAM in the form of amine (Lumiprob, Russia) was used for bonding analysis. The peptides were labeled according a standard manufacturer protocol: they were dissolved in 0.1 mol/L solution of NaHCO3, 6-FAM dye was then added to the solution and incubated for 30 min at room temperature in the dark. The peptides were purified from the dye excess using alcohol precipitation method. For purification, one part of the labeled peptide solution was mixed with nine parts of the 95% ethanol cooled at –20°C. Further, the peptides were incubated for 90 min at the same temperature (–20°C). After incubation, the cooled solution was centrifuged for 15 min at 13,000 rpm in the Allegra centrifuge (Beckman Coulter, USA). After centrifugation, the supernatant, containing the labeled peptide, was removed and dried using a vacuum concentrator (Eppendorf, Germany).
(§2) The peptides were bound to the cell cultures such as HCT-116, LnCap, PC-3, CHO-K1. The HCT-116 (human colorectal carcinoma cell line) and CHO-K1 (an epithelial cell line derived from the Chinese hamster ovary) were obtained from the Russian collection of cell cultures of vertebrate. The LnCap (PSMA-positive adenocarcinoma of the human prostate gland) and PC-3 cultures (PSMA-negative adenocarcinoma of the human prostate obtained from the bone metastases) were kindly provided by the N.N. Blokhin National Medical Research Center of Oncology (Russia). […]
(§3) 24 h before the experiment, the cultures were seeded in 24-well plates at the concentration of 100,000/well (LnCap — 150,000/well) to achieve the exponential stage. […] After the incubation, the medium with unbonded peptides was removed, the plate wells were washed with a cooled phosphate buffer and the fluorescence signal was recorded using an optical system equipped with a Nikon Ti-S microscope, DS-Qi1MC camera, S Plan Fluor ELWD 20×0.45 objective lenses, 465-495/515-555 nm filter (Nikon, Japan), and a computer with NIS-elements 4.0 software package.
(§4) The quantitative analysis of images was performed with an ImageJ program. The fluorescence signal from more than 300 cells was analyzed for each peptide. The fluorescence intensity was calculated by the following formula: total cell fluorescence = integral density – (area of the selected cell × mean fluorescence of the background indicators) as described by Khokhlova et al.. Shortly it looks like as follows: to obtain a fluorescence signal of each selected cell in the ImageJ program, the integral density parameter is taken, after that, the fluorescence of the background, equal in area to the cell size, is subtracted from this parameter. The fluorescence signal without peptides was registered as a control. The data were presented in the relative units of fluorescence.

[4] = system: LnCap culture; experiment: as above; assay type: cell-based, human; conditions: 1 μmol/L, 3 h incubation, washed with cooled phosphate buffer, ImageJ, >300 cells
Experimental: as §1, §2, §3, §4

[5] = system: PC-3 culture; experiment: as above; assay type: cell-based, human; conditions: 1 μmol/L, 3 h incubation, washed with cooled phosphate buffer, ImageJ, >300 cells
Experimental: as §1, §2, §3, §4

[6] = system: CHO-K1 culture; experiment: as above; assay type: cell-based, Chinese hamster; conditions: 1 μmol/L, 3 h incubation, washed with cooled phosphate buffer, ImageJ, >300 cells, negative control culture
Experimental: as §1, with “After incubation, the cooled solution was centrifuged for 15 min at 13,000 rpm in the Allegra centrifuge (Beckman Coulter, USA). After centrifugation, the supernatant, containing the labeled peptide, was removed and dried using a vacuum concentrator (Eppendorf, Germany).” left out
as §3
The quantitative analysis of images was performed with an ImageJ program. The fluorescence signal from more than 300 cells was analyzed for each peptide. […] The fluorescence signal without peptides was registered as a control. […]

| labeling result retained (radiochromatogram, Figure 4) after 168 h ([1]; after 168 h, radiochromatogram) | chemical stability (chromatographic purity) after 24 h ([2]; 24 h in 0.9% sodium chloride, 37°C) [%] | chemical stability (chromatographic purity) after 168 h ([2]; 168 h in 0.9% sodium chloride, 37°C) [%] | chemical stability (chromatographic purity), initial ([2]; initial) [%] | Structure (SMILES) | radiochemical purity after 24 h ([1]; 24 h in 0.9% sodium chloride at 37°C, radio-HPLC, M±SD) [%] | radiochemical purity after 48 h ([1]; 48 h in 0.9% sodium chloride at 37°C, radio-HPLC, M±SD) [%] | radiochemical purity after 168 h ([1]; radio-HPLC, M±SD) [%] | radiochemical purity, initial ([1]; initial (after labeling and C18 cartridge purification), radio-HPLC with GABI detector, acetonitrile/water (0.01% TFA) gradient, M±SD) [%] | binding to HCT-116 culture (fluorescence signal) [3] | binding to LnCap culture (fluorescence signal) [4] | binding to LnCap culture (fluorescence signal) ([4]; listed as PSMA- 617) | binding to PC-3 culture (fluorescence signal) [5] | binding to CHO-K1 culture (fluorescence signal) [6] |
| --- | --- | --- | --- | --- | --- | --- | --- | --- | --- | --- | --- | --- | --- |
| – | – | – | – | O=C([O-])CN1CCN(CC(=O)[O-])CCN(CC(=O)NCC2CCC(C(=O)N[C@@H](Cc3ccc4ccccc4c3)C(=O)NCCCC[C@H](NC(=O)N[C@@H](CCC(=O)O)C(=O)O)C(=O)O)CC2)CCN(CC(=O)[O-])CC1.[177Lu+3] (some centres unmarked) [Lu-PSMA-617] | 39.6±4.1 | 19.7±2.9 | 9.2±0.7 | 99.7±3.2 | – | – | – | – | – |
| almost completely detached | 80.6±6.7 | 42.9±3.4 | 99.1±2.6 | O=C(O)CC[C@H](NC(=O)N[C@@H](CCCCNC(=O)[C@H](Cc1ccc2ccccc2c1)NC(=O)[C@H]1CC[C@H](CNC(=O)CN2CCN(CC(=O)O)CCN(CC(=O)O)CCN(CC(=O)O)CC2)CC1)C(=O)O)C(=O)O [PSMA-617] | – | – | 9.2±0.7 | – | not bound | high degree of attachment | is binding to the LnCap culture | not bound | not bound |
